The subject of one series is T. cruzi isolates. Nature of the series: In vitro potency of AN14353 for a range of T. cruzi isolates of different genetic lineages (DTUs). Format: cell-based, Trypanosoma cruzi. The procedure: The in vitro anti-T. cruzi amastiogote activity assay was performed and optimized based on the protocol described previously (Canavaci, et al., PLoS neglected tropical diseases 4, e740 (2010)). The change in tdTomato fluorescence intensity was determined as a measurement of growth over 72 hours of culture. For assaying drug effects on extracellular amastigotes, trypomastigotes were collected from infected Vero cell cultures and converted in acidic media as previously described (Tomlinson, et al., Parasitology 110 (Pt 5), 547-554 (1995)). Amastigotes (50,000/well) were incubated with 2-fold serial dilutions of compounds for 48 hours. The ATP production was used as an indication of growth in this case, and was measured by ATPlite Luminescence ATP Detection Assay System (PerkinElmer). Both fluorescence and luminescence were read using a BioTek Synergy Hybrid Multi-Mode reader equipped with the software Gene5 v 2.0 (BioTek). The dose-response curve was generated by […] analysis with GraphPad Prism v9.4.0 (GraphPad Software). IC50 was determined as the drug concentration that was required to inhibit 50% of growth compared to that of parasites with no drug exposure. […]

The next series deals with T. cruzi (CL strain). Nature of the series: Rapid in vivo assay: mouse footpad infection with tdTomato-expressing T. cruzi, single oral dose. More on the design: species or system Trypanosoma cruzi. To be noted: mice, reduced doses (FIG. 1B). The procedure: Fluorescent intensity of the feet was measured at 2 dpi before compound administration and at 4 dpi in the Maestro in vivo imaging system equipped with the software Maestro 2.1.0 (CRi) as previously described (Fleau, et al., J Med Chem 62, 10362-10375 (2019)). The proliferation index was estimated as PI=[(T4d−T2d)/(mUnt4d−mUnt2d)]*100; where T4d and T2d are the fluorescence intensity of the feet of the treated animals at days 4 and 2 post-infection respectively; mUnt4d and mUnt2d are the average fluorescence intensity of the feet of the untreated animals at 4 and 2 dpi respectively.

Series [1] can be described thus: Pharmacokinetics in mice (intravenous and oral). To be noted: in words. Format: in vivo.

Broadly, the IC50 is the midpoint of a concentration-inhibition curve. As usually defined, the IC90 is the concentration at which the effect reaches the 90% level.

As for `Cc1c(C(=O)N[C@H](C(=O)OCc2ccc(F)c(F)c2)C(C)C)ccc2c1B(O)OC2` [AN14353], the “in vitro potency for a range of T. cruzi isolates” value in the series on T. cruzi isolates (in words) is reported as “high in vitro potency”. The IC50 turned out to be 3 nM with T. cruzi isolates (strain 20290, DTU TcI); 5 nM in the series on T. cruzi isolates (strain 20392, DTU TcIV); 3 nM with T. cruzi isolates (strain ARC0704, DTU TcI); 6 nM in the series with T. cruzi isolates (strain CL, DTU TcVI); 7 nM in the series on T. cruzi isolates (strain Colombiana, DTU TcI); 1 nM in the series on T. cruzi isolates (strain M5631, DTU TcIII). Further, the IC50 was determined as 1 nM in the series on T. cruzi isolates (strain Montalvania, DTU TcI) and 1 nM with T. cruzi isolates (strain Tul8, DTU TcII). For the same compound, the IC90 in the series on T. cruzi isolates (strain 20290, DTU TcI) stood at 5 nM; in the series on T. cruzi isolates (strain 20392, DTU TcIV), 10 nM; with T. cruzi isolates (strain ARC0704, DTU TcI), 7 nM; with T. cruzi isolates (strain CL, DTU TcVI), 18 nM; in the series with T. cruzi isolates (strain Colombiana, DTU TcI) it was 10 nM; in the series with T. cruzi isolates (strain M5631, DTU TcIII), 3 nM. For the same compound, the IC90 with T. cruzi isolates (strain Montalvania, DTU TcI) amounted to 2 nM; in the series with T. cruzi isolates (strain Tul8, DTU TcII), 2 nM. For the same compound, the “reduction of established focal footpad infection by a single oral dose” value in the series on T. cruzi (CL strain) is recorded as “activity at reduced doses”. In addition, the “absorption (dose proportionality of exposure in vivo)” value in series [1] was “solubility-limited absorption”.

Source of the values: patent US20240133884A1, “COMPOSITIONS AND METHODS FOR DETECTING TRYPANOSOMA CRUZI INFECTION” (University of Georgia Research Foundation, Inc., priority 2022, published 2024).
